In patent publication US20240360165A1, “INHIBITORS OF CYCLIN DEPENDENT KINASE 7 (CDK7)” (Syros Pharmaceuticals, Inc., priority 2016, published 2024):
Like-named read-outs stand apart in the source and are kept apart here.

Experiments:
[1] = molecular target: T1, CDK12 (aa686-1082)/Cyclin K complex (Homo sapiens, UniProt Q9NYV4); assay: CDK12 inhibition assay (Caliper/LabChip EZ Reader kinase assay); format: biochemical; details: Table 1; CDK12 (aa686-1082)/Cyclin K 50 nM, ATP 2 mM, 3 hr at 27° C.
T1 construct: CDK12 (aa686-1082)/Cyclin K complex
T1 sequence (Q9NYV4 686-1082, species assumed): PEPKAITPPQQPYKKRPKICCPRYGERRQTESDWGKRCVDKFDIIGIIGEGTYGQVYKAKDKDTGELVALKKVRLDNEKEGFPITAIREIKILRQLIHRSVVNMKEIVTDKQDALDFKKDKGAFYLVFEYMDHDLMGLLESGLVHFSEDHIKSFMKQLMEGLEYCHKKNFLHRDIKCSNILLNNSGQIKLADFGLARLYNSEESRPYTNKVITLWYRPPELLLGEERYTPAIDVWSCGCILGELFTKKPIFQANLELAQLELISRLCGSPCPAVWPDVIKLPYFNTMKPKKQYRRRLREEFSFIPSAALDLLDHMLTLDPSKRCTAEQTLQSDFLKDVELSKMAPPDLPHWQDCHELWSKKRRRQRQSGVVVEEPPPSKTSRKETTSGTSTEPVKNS
T1 sequence (O75909 whole entry partner, species assumed, the tested form may be a part): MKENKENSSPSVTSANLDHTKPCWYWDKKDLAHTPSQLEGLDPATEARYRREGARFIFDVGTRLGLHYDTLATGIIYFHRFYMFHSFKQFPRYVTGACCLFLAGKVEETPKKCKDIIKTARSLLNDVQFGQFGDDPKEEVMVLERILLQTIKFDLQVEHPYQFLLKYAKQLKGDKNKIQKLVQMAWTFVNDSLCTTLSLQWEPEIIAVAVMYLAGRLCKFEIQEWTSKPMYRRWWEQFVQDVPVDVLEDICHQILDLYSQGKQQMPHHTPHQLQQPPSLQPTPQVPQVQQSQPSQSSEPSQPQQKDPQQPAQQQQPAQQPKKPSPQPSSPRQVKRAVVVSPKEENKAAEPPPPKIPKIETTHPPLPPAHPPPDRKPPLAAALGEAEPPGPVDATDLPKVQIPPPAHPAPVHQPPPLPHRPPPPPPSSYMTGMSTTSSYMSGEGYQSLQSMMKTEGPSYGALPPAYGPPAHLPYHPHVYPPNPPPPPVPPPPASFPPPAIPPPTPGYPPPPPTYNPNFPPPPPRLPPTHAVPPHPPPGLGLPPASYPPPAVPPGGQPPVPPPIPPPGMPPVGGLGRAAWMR
Protocol: (§1) Compounds of the invention were assayed for inhibition of CDK7, CDK9, CDK12, and CDK2 activity at Biortus Biosciences (Jiangyin, Jiangsu Province, P.R. of China) using kinase assays for each CDK developed with a Caliper/LabChip EZ Reader (Perkin Elmer, Waltham, MA).
(§2) Furthermore, the CDK9 inhibition assay used CDK9/Cyclin T1 complex (8 nM) and “5-FAM-CDK9tide” peptide substrate (2 μM, synthesized fluorophore-labeled peptide with the following sequence: 5-FAM-GSRTPMY-NH2 where 5-FAM is defined above and NH2 signifies a C-terminal amide) with 10 mM MgCl2 in the buffer composition listed above. […] Additionally, the CDK2 inhibition assay used CDK2/Cyclin E1 complex (0.5 nM) and “5-FAM-CDK7tide” ([…]) as defined above, with 2 mM MgCl2 in the buffer composition listed above.

[2] = molecular target: CDK7/Cyclin H/MAT1 complex (Homo sapiens, UniProt P50613); assay: CDK7 inhibition assay (Caliper/LabChip EZ Reader kinase assay); format: biochemical; details: Table 1; CDK7/Cyclin H/MAT1 6 nM, ATP 2 mM, 35 min at 27° C.
CDK7/Cyclin H/MAT1 complex, sequence (P50613 whole entry, species assumed): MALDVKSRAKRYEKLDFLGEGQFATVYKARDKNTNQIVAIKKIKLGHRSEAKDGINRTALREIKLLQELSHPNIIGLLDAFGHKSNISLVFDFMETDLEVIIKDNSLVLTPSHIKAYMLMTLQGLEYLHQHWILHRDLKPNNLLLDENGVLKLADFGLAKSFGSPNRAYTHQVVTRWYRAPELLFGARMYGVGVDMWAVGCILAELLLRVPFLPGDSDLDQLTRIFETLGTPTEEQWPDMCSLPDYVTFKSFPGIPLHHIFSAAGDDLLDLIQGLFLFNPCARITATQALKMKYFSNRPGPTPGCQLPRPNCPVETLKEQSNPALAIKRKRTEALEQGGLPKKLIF
CDK7/Cyclin H/MAT1 complex, sequence (P51946 whole entry partner, species assumed): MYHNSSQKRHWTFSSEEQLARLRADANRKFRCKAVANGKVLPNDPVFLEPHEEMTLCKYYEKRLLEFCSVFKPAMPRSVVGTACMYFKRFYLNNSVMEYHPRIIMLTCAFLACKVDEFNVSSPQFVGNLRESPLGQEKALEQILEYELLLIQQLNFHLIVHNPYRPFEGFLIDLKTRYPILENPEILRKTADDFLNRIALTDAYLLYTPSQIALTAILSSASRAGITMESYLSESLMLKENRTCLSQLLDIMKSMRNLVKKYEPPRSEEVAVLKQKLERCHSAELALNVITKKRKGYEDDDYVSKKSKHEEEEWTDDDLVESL
CDK7/Cyclin H/MAT1 complex, sequence (P51948 whole entry partner, species assumed): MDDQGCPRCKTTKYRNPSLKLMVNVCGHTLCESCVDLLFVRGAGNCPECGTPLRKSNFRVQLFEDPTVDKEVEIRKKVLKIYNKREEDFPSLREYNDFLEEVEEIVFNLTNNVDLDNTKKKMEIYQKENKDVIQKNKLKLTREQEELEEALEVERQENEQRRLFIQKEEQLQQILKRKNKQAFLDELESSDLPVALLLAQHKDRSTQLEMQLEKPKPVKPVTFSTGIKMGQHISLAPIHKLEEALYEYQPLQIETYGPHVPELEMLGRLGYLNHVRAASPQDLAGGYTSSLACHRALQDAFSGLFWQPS
Protocol: as §1, §2

A673 cells = assay: Inhibition of proliferation of A673 cells (CyQUANT, 72 hour); format: cell-based, human; details: A673 cells, 72 hour, CyQUANT, read-out: Inhibition of Proliferation of A673 Cells (calculated IC50)
Protocol: A673 cells are a cell line derived from human […] Ewing's sarcoma. Representative compounds of the invention were tested at different concentrations (from […]; 0.5 log serial dilutions) for their ability to inhibit the proliferation of A673 cells. Known CDK inhibitors dinaciclib or N-((1S,3R)-3-((5-chloro-4-(1H-indol-3-yl)pyrimidin-2-yl)amino)cyclohexyl)-5-((E)-4-(dimethylamino)but-2-enamido)picolinamide and triptolide were used as positive controls. Cells were grown in Dulbecco's Modified Eagle's Medium, +10% FBS+1 mM Sodium Pyruvate. The cells were cultured at 37° C. in a humidified chamber in the presence of 5% CO2. Proliferation assays were conducted over a 72 hour time period. CyQUANT® (Life Technologies, Chicago, IL USA) was used to assess the anti-proliferative effects of the compounds following manufacturer's directions and utilizing the reagents supplied with the CyQUANT® kit.

CDK9/Cyclin T1 complex = CDK9/Cyclin T1 complex (Homo sapiens, UniProt P50750); assay: CDK9 inhibition assay (Caliper/LabChip EZ Reader kinase assay); format: biochemical; details: Table 1; CDK9/Cyclin T1 8 nM, ATP 2 mM, 15 min at 27° C.
CDK9/Cyclin T1 complex, sequence (P50750 whole entry, species assumed): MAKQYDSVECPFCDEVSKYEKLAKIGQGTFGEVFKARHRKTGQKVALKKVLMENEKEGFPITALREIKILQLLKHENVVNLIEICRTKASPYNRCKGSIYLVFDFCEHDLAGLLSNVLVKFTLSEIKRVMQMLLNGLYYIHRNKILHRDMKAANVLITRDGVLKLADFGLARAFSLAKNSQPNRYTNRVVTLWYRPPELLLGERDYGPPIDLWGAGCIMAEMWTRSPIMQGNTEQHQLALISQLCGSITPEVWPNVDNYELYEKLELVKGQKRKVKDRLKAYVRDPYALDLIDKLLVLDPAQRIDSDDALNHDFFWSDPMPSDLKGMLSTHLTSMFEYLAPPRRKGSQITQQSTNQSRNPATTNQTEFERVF
CDK9/Cyclin T1 complex, sequence (O60563 whole entry partner, species assumed): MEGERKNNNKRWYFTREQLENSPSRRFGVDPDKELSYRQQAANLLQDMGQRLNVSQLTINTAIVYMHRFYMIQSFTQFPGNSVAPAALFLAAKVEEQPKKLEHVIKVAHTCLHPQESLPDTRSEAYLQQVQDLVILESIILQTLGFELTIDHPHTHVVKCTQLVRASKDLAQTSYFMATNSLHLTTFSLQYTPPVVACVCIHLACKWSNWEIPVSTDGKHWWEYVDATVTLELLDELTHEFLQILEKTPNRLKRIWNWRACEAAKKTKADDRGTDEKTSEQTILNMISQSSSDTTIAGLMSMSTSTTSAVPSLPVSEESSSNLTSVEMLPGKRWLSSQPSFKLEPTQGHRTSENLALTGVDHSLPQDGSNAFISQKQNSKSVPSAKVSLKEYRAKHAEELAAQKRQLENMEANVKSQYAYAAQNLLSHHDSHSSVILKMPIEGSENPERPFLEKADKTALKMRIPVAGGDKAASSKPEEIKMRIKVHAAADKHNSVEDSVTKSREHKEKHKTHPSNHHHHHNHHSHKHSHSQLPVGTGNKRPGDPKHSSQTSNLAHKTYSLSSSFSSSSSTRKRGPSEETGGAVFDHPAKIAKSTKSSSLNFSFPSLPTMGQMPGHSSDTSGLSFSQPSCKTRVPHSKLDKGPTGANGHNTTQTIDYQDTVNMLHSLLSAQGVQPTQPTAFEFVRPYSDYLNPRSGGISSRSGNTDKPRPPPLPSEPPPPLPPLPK
Protocol: as §1, §2

CDK2/Cyclin E1 complex = CDK2/Cyclin E1 complex (Homo sapiens, UniProt P24941); assay: CDK2 inhibition assay (Caliper/LabChip EZ Reader kinase assay); format: biochemical; details: Table 1; CDK2/Cyclin E1 0.5 nM, ATP 2 mM, 35 min at 27° C.
Protocol: as §1, §2

| Structure (SMILES) | IC50 [1] [µM] | IC50 [2] [nM] | IC50 (CDK9/Cyclin T1 complex) [µM] | IC50 (CDK2/Cyclin E1 complex) [µM] | IC50 (A673 cells) [nM] | IC50 (A673 cells; Homo sapiens, A673, 72 h) [nM] | IC50 (A673 cells; Homo sapiens) [nM] |
| --- | --- | --- | --- | --- | --- | --- | --- |
| OC1CC=C(c2cccc3c(-c4nc(N[C@H]5CCCNC5)ncc4C(F)(F)F)c[nH]c23)CC1 (stereo partly drawn) [Compound 198] | 0.2 to 5 | < 20 | 0.2 to 5 | 0.2 to 5 | < 20 | – | – |
| CC(C)c1cnc(N[C@H]2CCCNC2)nc1-c1n[nH]c2nc(C#N)ccc12 [Compound 276, (S)-3-(5-isopropyl-2-(piperidin-3-ylamino)pyrimidin-4-yl)-1H-pyrazolo[3,4-b]pyridine-6-carbonitrile] | > 5 | 20 to 200 | > 5 | > 5 | – | 200 to 5000 | – |
| CNC(=O)[C@@H]1CNC[C@@H](Nc2ncc(C(F)(F)F)c(-c3c[nH]c4ccccc34)n2)C1 [Compound 256] | 0.2 to 5 | 20 to 200 | > 5 | 0.2 to 5 | 200 to 5000 | – | – |
| CC(O)c1cnc(N[C@H]2CCCNC2)nc1-c1c[nH]c2ccccc12 (mixture of isomers) [Compound 234] | > 5 | 200 to 5000 | > 5 | > 5 | – | < 20 | – |
| FC(F)(F)c1cnc(N[C@H]2CCCNC2)nc1-c1c[nH]c2cc(-c3ncc[nH]3)ccc12 [Compound 202, 4-[6-(1H-imidazol-2-yl)-1H-indol-3-yl]-N-[(3S)-3-piperidyl]-5-(trifluoromethyl) pyrimidin-2-amine] | > 5 | < 20 | 0.2 to 5 | 0.2 to 5 | – | 20 to 200 | – |
| COc1cnc(N[C@H]2CCCNC2)nc1-c1c[nH]c2ccccc12 [Compound 189] | > 5 | 200 to 5000 | > 5 | > 5 | 200 to 5000 | – | – |
| FC(F)(F)c1cnc(N[C@H]2CNC[C@@H](c3nnc4ccccn34)C2)nc1-c1c[nH]c2ccccc12 [Compound 268] | 0.2 to 5 | 200 to 5000 | > 5 | > 5 | 200 to 5000 | – | – |
| FC(F)(F)c1cnc(N[C@H]2CCCNC2)nc1-c1c[nH]c2cc(-c3ccnnc3)ccc12 [Compound 230, N-[(3S)-3-piperidyl]-4-(6-pyridazin-4-yl-1H-indol-3-yl)-5-(trifluoromethyl) pyrimidin-2-amine] | 0.2 to 5 | < 20 | 0.2 to 5 | 0.2 to 5 | – | 20 to 200 | – |
| N#Cc1cc2[nH]cc(-c3nc(N[C@H]4CCCNC4)ncc3C(F)(F)F)c2cc1F [Compound 197, 5-fluoro-3-[2-[[(3S)-3-piperidyl]amino]-5-(trifluoromethyl)pyrimidin-4-yl]-1H-indole-6-carbonitrile] | 0.2 to 5 | < 20 | 0.2 to 5 | 0.2 to 5 | – | < 20 | – |
| CC(O)c1cnc(NC2CCCNC2)nc1-c1c[nH]c2ccccc12 (single isomer, unassigned) [Compound 239] | > 5 | 200 to 5000 | > 5 | > 5 | 200 to 5000 | – | – |
| CCOP(=O)(OCC)c1cccc2c(-c3nc(N[C@H]4CCCNC4)ncc3C(F)(F)F)c[nH]c12 [Compound 168] | > 5 | 200 to 5000 | > 5 | > 5 | – | – | 200 to 5000 |
| Clc1cnc(N[C@H]2CN3CCC2CC3)nc1-c1c[nH]c2ccccc12 [Compound 134] | > 5 | > 5000 | > 5 | > 5 | 200 to 5000 | – | – |
| CC(O)c1cnc(NC2CCCNC2)nc1-c1c[nH]c2ccccc12 (single isomer, unassigned) [Compound 238] | > 5 | 200 to 5000 | > 5 | > 5 | – | 200 to 5000 | – |
| COCCN1CCC[C@H](Nc2ncc(Cl)c(-c3c[nH]c4ccccc34)n2)C1 [Compound 149] | 0.2 to 5 | 20 to 200 | 0.2 to 5 | 0.2 to 5 | 20 to 200 | – | – |

Continued, in another order:

| IC50 [1] [µM] | IC50 [2] [nM] | IC50 (CDK9/Cyclin T1 complex) [µM] | IC50 (CDK2/Cyclin E1 complex) [µM] | Structure (SMILES) | IC50 (A673 cells) [nM] | IC50 (A673 cells; Homo sapiens, A673, 72 h) [nM] | IC50 (A673 cells; Homo sapiens) [nM] |
| --- | --- | --- | --- | --- | --- | --- | --- |
| 0.2 to 5 | < 20 | 0.2 to 5 | 0.2 to 5 | Cc1nn(C)cc1-c1ccc2c(-c3nc(N[C@H]4CCCNC4)ncc3C(F)(F)F)c[nH]c2c1 [Compound 226, 4-[6-(1,3-dimethylpyrazol-4-yl)-1H-indol-3-yl]-N-[(3S)-3-piperidyl]-5-(trifluoromethyl) pyrimidin-2-amine] | – | < 20 | – |
| 0.2 to 5 | < 20 | > 5 | 0.2 to 5 | Cc1nc(-c2ccc3c(-c4nc(N[C@H]5CCCNC5)ncc4C(F)(F)F)c[nH]c3c2)nn1C [Compound 245, 4-[6-(1,5-dimethyl-1,2,4-triazol-3-yl)-1H-indol-3-yl]-N-[(3S)-3-piperidyl]-5-(trifluoromethyl) pyrimidin-2-amine] | – | 20 to 200 | – |
| 0.2 to 5 | 200 to 5000 | > 5 | > 5 | CC(C)C1CCC(Nc2ncc(C(F)(F)F)c(-c3c[nH]c4ccccc34)n2)CN1 (stereo not drawn) [Compound 260] | – | 200 to 5000 | – |
| 0.2 to 5 | 20 to 200 | 0.2 to 5 | > 5 | CC(C)N1CCC[C@H](Nc2ncc(Cl)c(-c3c[nH]c4ccccc34)n2)C1 [Compound 148] | – | 20 to 200 | – |
| 0.2 to 5 | < 20 | 0.2 to 5 | 0.2 to 5 | CCS(=O)(=O)c1ccc2c(-c3nc(N[C@H]4CCCNC4)ncc3C(F)(F)F)c[nH]c2c1 [Compound 274] | – | 20 to 200 | – |
| 0.2 to 5 | < 20 | 0.2 to 5 | 0.2 to 5 | Cc1cn(-c2cccc3c(-c4nc(N[C@H]5CCCNC5)ncc4C(F)(F)F)c[nH]c23)cn1 [Compound 172] | – | < 20 | – |
| 0.2 to 5 | 20 to 200 | 0.2 to 5 | > 5 | FCCc1cnc(N[C@H]2CCCNC2)nc1-c1c[nH]c2ccccc12 [Compound 206] | – | 200 to 5000 | – |
| 0.2 to 5 | < 20 | 0.2 to 5 | 0.2 to 5 | O[C@H]1CNC[C@@H](Nc2ncc(C(F)(F)F)c(-c3c[nH]c4ccccc34)n2)C1 [Compound 203, (3R,5S)-5-[[4-(1H-indol-3-yl)-5-(trifluoromethyl)pyrimidin-2-yl]amino]piperidin-3-ol] | – | < 20 | – |
| 0.02 to 0.2 | < 20 | 0.2 to 5 | 0.02 to 0.2 | CNC(=O)C1CNCC(Nc2ncc(C(F)(F)F)c(-c3c[nH]c4ccccc34)n2)C1 (single isomer, unassigned) [Compound 253] | 20 to 200 | – | – |
| 0.2 to 5 | < 20 | 0.2 to 5 | 0.2 to 5 | N#Cc1ccc2c(-c3nc(N[C@H]4CCCNC4)ncc3C(F)(F)F)c[nH]c2c1C#N [Compound 258, 3-[2-[[(3S)-3-piperidyl]amino]-5-(trifluoromethyl)pyrimidin-4-yl]-1H-indole-6,7-dicarbonitrile] | – | 20 to 200 | – |
| 0.2 to 5 | < 20 | 0.2 to 5 | 0.2 to 5 | FC(F)(F)c1cnc(N[C@H]2CCC3(CC3)NC2)nc1-c1c[nH]c2ccccc12 [Compound 212] | – | < 20 | – |
| 0.2 to 5 | < 20 | 0.2 to 5 | 0.2 to 5 | FC(F)(F)c1cnc(N[C@H]2CCCNC2)nc1-c1c[nH]c2cc(-c3cccnc3)ccc12 [Compound 223, N-[(3S)-3-piperidyl]-4-[6-(3-pyridyl)-1H-indol-3-yl]-5-(trifluoromethyl) pyrimidin-2-amine] | – | 20 to 200 | – |
| 0.2 to 5 | < 20 | 0.2 to 5 | 0.2 to 5 | CNS(=O)(=O)c1ccc2c(-c3nc(N[C@H]4CCCNC4)ncc3C(F)(F)F)c[nH]c2c1 [Compound 200, N-methyl-3-[2-[[(3S)-3-piperidyl]amino]-5-(trifluoromethyl)pyrimidin-4-yl]-1H-indole-6-sulfonamide] | – | 20 to 200 | – |
